Like-named read-outs stand apart in the source and are kept apart here.
Tests used:
[1] = test system: 217 S. aureus Canadian isolates; format: cell-based; details: 217 Canadian isolates
Method: CLSI broth microdilution (BMD) and anaerobic agar dilution (AD) methods were performed. Modifications of standard test methods included adding 10% human serum, adjusting the medium pH to 5, 6, and 8, and synergy was assessed by the checkerboard method.

[2] = Single oral dose bioavailability study, fed/fasted crossover, plasma fusidic acid; details: human, in vivo, 500 mg, 500 mg single oral dose; for AUC(0-t): read-out: AUC0-t, geometric mean (CV %); for AUC(0-inf): read-out: AUCinf, geometric mean (CV %); for Cmax: read-out: Cmax, geometric mean (CV %); for half-life: read-out: t1/2, arithmetic mean ± SD (converted); for AUC: read-out: total exposure (AUC)
Method: This was a single-center, Phase 1, double-blind, randomized, 3 period, fed/fasted crossover bioequivalence study designed to evaluate the relative bioavailability and safety and tolerability of a single oral dose of CEM-102 500 mg compared to Fucidin® 500 mg in healthy subjects.
Subjects were randomized in equal numbers to the 4 treatment sequences (Table 3).
Study Period 1, 2, and 3 (Days 1, 15, and 29): One dose of study drug 500 mg (2×250 mg) of CEM-102 or Fucidin® was given at 8:00 AM (˜30 minutes). On Day 1 of Study Periods 1 and 2 (Days 1 and 15), subjects fasted overnight for at least 10 hours prior to dosing. On Day 1 of Study Period 3 (Day 29), subjects were given a high fat caloric meal which was to be entirely consumed within 30 minutes prior to study drug administration.
Blood samples for assay of plasma concentrations were collected on Days 1, 15 and 29 at pre-dose and 0.5, 1, 1.5, 2, 2.5, 3, 3.5, 4, 6, 8, 12, 16, 24, 36, and 48 hours after the dose. Plasma concentrations were assayed at MicroConstants, Inc. in San Diego, Calif. using a validated liquid chromatography with dual tandem mass spectrometry (LC/MS/MS) method with a lower limit of quantitation (LLOQ) of 20.0 ng/mL

In the case of `CC(=O)O[C@H]1C[C@@]2(C)[C@@H](C[C@@H](O)[C@H]3[C@@]4(C)CC[C@@H](O)[C@@H](C)[C@@H]4CC[C@@]32C)/C1=C(\CCC=C(C)C)C(=O)O` [CEM-102, Sodium fusidate], the “isolates with MICs of ≧2.0 μg/mL (classified as resistant)” value [1] is reported as 6.5%, the AUC(0-t) ([2]; fasting) is reported as 300 µg·h/mL and the AUC(0-inf) ([2]; fasting) is reported as 318 µg·h/mL. It also gave a Cmax ([2]; fasting) of 27400 ng/mL, a half-life ([2]; fasting) of 708 ± 132 min and an AUC ([2]; fasting) of about 318 µg·h/mL. For the same compound, the AUC(0-t) ([2]; fed) was 269 µg·h/mL, the AUC(0-inf) ([2]; fed) was 285 µg·h/mL and the Cmax ([2]; fed) was 21200 ng/mL. It also gave a half-life ([2]; fed) of 690 ± 165 min and an AUC ([2]; fed) of about 285 µg·h/mL.

Reference: patent US8450300B2 (priority 2009, dated 2013)
